Measurements as given in patent US20250213707A1, “COMPOUND FOR INCREASING EFFICACY OF ONCOLYTIC VIRUSES” (ABLEVIA BIOTECH GMBH, priority 2022, published 2025).

Tests used:
[1] = test system: IgG from human donors (anti-AAV antibodies); experiment: Screen for anti-AAV antibodies in human sera based on cyclic 14-amino-acid AAV peptides on microarrays (Table 2); type: binding; set-up: key: X: the deduplicated aggregate of the respective top 50 peptide hits for each donor was compiled and designated as group I; settings: human donor IgG; circularized AAV peptides; top 50 peptide hits for each donor
Experimental: More than 1200 cyclic peptides derived from the sequences of human and rhesus monkey AAV sequences and artificial AAV sequences according to Table 2 and with a sequence length of 14 amino-acids each were synthesized.
Samples obtained from human donors were screened for antibodies against these AAV-derived peptides immobilized on microarrays. To this end, IgG was prepared from blood obtained from the human donors by protein G purification. Each IgG sample was incubated with the peptide microarrays and Ig binding signals were detected by fluorescence. All antibody binding signals to the peptides on the arrays were background subtracted and ranked for each sample and a deduplicated aggregate of the respective top 250 peptide hits for each donor with the corresponding protein sequence of origin (as obtained from UniProt or other sources) was compiled (designated as group II). Further, the deduplicated aggregate of the respective top 50 peptide hits for each donor was compiled and designated as group I.
Altogether, group I contains 47 distinct peptide hits (assigned to the corresponding AAV vectors in Table 2) and group II yielded 172 distinct peptide hits. Evidently, group I is a subset of group II.

[2] = test system: IgG from human donors (anti-AAV antibodies); experiment: Screen for anti-AAV antibodies in human sera, 2452 linear 15-amino-acid AAV peptides on microarrays (Table 1); type: binding; set-up: key to group I: X: the deduplicated aggregate of the respective top 10 peptide hits for each donor was compiled and designated as group I; key to group II: X: the deduplicated aggregate of the respective top 25 peptide hits for each donor was compiled and designated as group II; key to group III: X: the deduplicated aggregate of the respective top 50 peptide hits for each donor was compiled and designated as group III; settings: human donor IgG binding to linear 15-amino-acid AAV peptides on microarray, fluorescence; for group II: membership in deduplicated aggregate of top 25 peptide hits for each donor; for group III: membership in deduplicated aggregate of top 50 peptide hits for each donor; for group I: membership in deduplicated aggregate of top 10 peptide hits for each donor
In short: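 Protein G-purified IgG from human donor blood incubated with microarrays of 2452 linear 15-mer peptides from 16 AAVs; binding read by fluorescence. Background-subtracted signals ranked per donor, with top 10, 25, 50 and 250 hits pooled and deduplicated into groups I-IV.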

[3] = test system: polyclonal antibody ab6982; experiment: Epitope mapping of polyclonal antibody ab6982 against cyclic peptides of Ad5 fiber and hexon (peptide array); type: binding, rabbits; settings: cyclic peptides of fiber protein (clusters 1-7)

1938 (PLVDQYLYRFVSTN; REGION 1..14: note = peptide derived from viral capsid protein) [compound 1938]
group I [1]: X

1924 (YDQQLKAGDNPYLK; REGION 1..14: note = peptide derived from viral capsid protein) [compound 1924]
group I [1]: X

1927 (GTNTMATGSGAPMA; REGION 1..14: note = peptide derived from viral capsid protein) [compound 1927]
group I [1]: X

1902 (DEEEIRTTNPVATE; REGION 1..14: note = peptide derived from viral capsid protein) [compound 1902]
group I [1]: X

1907 (IFNIQVKEVTTSNG; REGION 1..14: note = peptide derived from viral capsid protein) [compound 1907]
group I [1]: X

1929 (TESVPDPQPIGEPP; REGION 1..14: note = peptide derived from viral capsid protein) [compound 1929]
group I [1]: X

1920 (KTAPGKKRPVDQSP; REGION 1..14: note = peptide derived from viral capsid protein) [compound 1920]
group I [1]: X

1932 (DEEEIKATNPVATE; REGION 1..14: note = peptide derived from viral capsid protein) [compound 1932]
group I [1]: X

1896 (KIFNIQVKEVTTSN; REGION 1..14: note = peptide derived from viral capsid protein) [compound 1896]
group I [1]: X

1935 (EEEIKTTNPVATEE; REGION 1..14: note = peptide derived from viral capsid protein) [compound 1935]
group I [1]: X

1895 (ANNLTSTVQIFADS; REGION 1..14: note = peptide derived from viral capsid protein) [compound 1895]
group I [1]: X

1892 (DSQWLGDRVITTST; REGION 1..14: note = peptide derived from viral capsid protein) [compound 1892]
group I [1]: X

1919 (GKKRPVDQSPQEPD; REGION 1..14: note = peptide derived from viral capsid protein) [compound 1919]
group I [1]: X

1897 (GNTSQQQTDRNAFY; REGION 1..14: note = peptide derived from viral capsid protein) [compound 1897]
group I [1]: X

1922 (SESVPDPQPLGEPP; REGION 1..14: note = peptide derived from viral capsid protein) [compound 1922]
group I [1]: X

1903 (NYNKSVNVDFTVDT; REGION 1..14: note = peptide derived from viral capsid protein) [compound 1903]
group I [1]: X

1923 (TAPGKKRPVDQSPQ; REGION 1..14: note = peptide derived from viral capsid protein) [compound 1923]
group I [1]: X

1899 (SESVPDPQPIGEPP; REGION 1..14: note = peptide derived from viral capsid protein) [compound 1899]
group I [1]: X

1901 (PQYGYLTLNNGSQA; REGION 1..14: note = peptide derived from viral capsid protein) [compound 1901]
group I [1]: X

PVPADPPTAFNKDK (REGION 1..14: note = peptide derived from viral capsid protein) [SEQ ID NO: 2018]
group II [2]: X
group III [2]: X
antibody binding signal ranking from the microarray experiment [3]: 012

LSKTANDNNNSNFP (REGION 1..14: note = peptide derived from viral capsid protein) [SEQ ID NO: 1988]
group I [2]: X
group II [2]: X
group III [2]: X
antibody binding signal ranking from the microarray experiment [3]: 001

NPVATEQYGSVSTN (REGION 1..14: note = peptide derived from viral capsid protein) [SEQ ID NO: 2005]
group II [2]: X
group III [2]: X
antibody binding signal ranking from the microarray experiment [3]: 004

SQSLDRLMNPLLDQ [SEQ ID NO: 2054]
group II [2]: X
group III [2]: X
antibody binding signal ranking from the microarray experiment [3]: 028

QQRVSKTSADNNNS (REGION 1..14: note = peptide derived from viral capsid protein) [SEQ ID NO: 2007]
group II [2]: X
group III [2]: X
antibody binding signal ranking from the microarray experiment [3]: 015

YNLQEIVPGSVWME [SEQ ID NO: 2063]
group II [2]: X
group III [2]: X
antibody binding signal ranking from the microarray experiment [3]: 143

SNYNKSVNVDFTVD (REGION 1..14: note = peptide derived from viral capsid protein) [SEQ ID NO: 1996]
group I [2]: X
group II [2]: X
group III [2]: X
antibody binding signal ranking from the microarray experiment [3]: 040

EYRTTRPIGTRYLT [SEQ ID NO: 2062]
group II [2]: X
group III [2]: X
antibody binding signal ranking from the microarray experiment [3]: 134

EEEIKATNPVATER [SEQ ID NO: 2045]
group II [2]: X
group III [2]: X
antibody binding signal ranking from the microarray experiment [3]: 148

GQTGESESVPDPQP [SEQ ID NO: 2059]
group II [2]: X
group III [2]: X
antibody binding signal ranking from the microarray experiment [3]: 095

PVDQSPQEPDSSSG [SEQ ID NO: 1991]
group I [2]: X
group II [2]: X
group III [2]: X
antibody binding signal ranking from the microarray experiment [3]: 005

PQILIKNTPVPANP (REGION 1..14: note = peptide derived from viral capsid protein) [SEQ ID NO: 2006]
group II [2]: X
group III [2]: X
antibody binding signal ranking from the microarray experiment [3]: 006

NLQAANLALGETTR [SEQ ID NO: 2020]
group II [2]: X
group III [2]: X
antibody binding signal ranking from the microarray experiment [3]: 016

IEMRAAPGGNAVDA [SEQ ID NO: 2052]
group II [2]: X
group III [2]: X
antibody binding signal ranking from the microarray experiment [3]: 014

RVSKTKTDNNNSNF [SEQ ID NO: 2049]
group II [2]: X
group III [2]: X
antibody binding signal ranking from the microarray experiment [3]: 178

PEPADVFMIPQYGY [SEQ ID NO: 2029]
group II [2]: X
group III [2]: X
antibody binding signal ranking from the microarray experiment [3]: 029

EGASYQVPPQPNGM [SEQ ID NO: 2061]
group II [2]: X
group III [2]: X
antibody binding signal ranking from the microarray experiment [3]: 108

PVPANPPTTFSPAK [SEQ ID NO: 1992]
group I [2]: X
group II [2]: X
group III [2]: X
antibody binding signal ranking from the microarray experiment [3]: 010

KSTSVDFAVNTEGV [SEQ ID NO: 2025]
group II [2]: X
group III [2]: X
antibody binding signal ranking from the microarray experiment [3]: 039

KRLNFEEDTGAGDG [SEQ ID NO: 2053]
group II [2]: X
group III [2]: X
antibody binding signal ranking from the microarray experiment [3]: 022

TTSGETLNQGNAAT [SEQ ID NO: 2057]
group II [2]: X
group III [2]: X
antibody binding signal ranking from the microarray experiment [3]: 079

ADPPTTFNQSKLNS [SEQ ID NO: 2024]
group II [2]: X
group III [2]: X
antibody binding signal ranking from the microarray experiment [3]: 032

SDSEYQLPYVLGSA [SEQ ID NO: 2050]
group II [2]: X
group III [2]: X
antibody binding signal ranking from the microarray experiment [3]: 197

DIYYQGPIWAKIPH (REGION 1..14: note = peptide derived from viral capsid protein) [SEQ ID NO: 2040]
group II [2]: X
group III [2]: X
antibody binding signal ranking from the microarray experiment [3]: 102

TVQIFADSSYELPY (REGION 1..14: note = peptide derived from viral capsid protein) [SEQ ID NO: 2043]
group II [2]: X
group III [2]: X
antibody binding signal ranking from the microarray experiment [3]: 136

EEEIKTTNPVATES (REGION 1..14: note = peptide derived from viral capsid protein) [SEQ ID NO: 2014]
group II [2]: X
group III [2]: X
antibody binding signal ranking from the microarray experiment [3]: 123

PYLRYHADAEFQER [SEQ ID NO: 2013]
group II [2]: X
group III [2]: X
antibody binding signal ranking from the microarray experiment [3]: 118
